Data on 3 molecules can be found in patent US11805799B2, “Composition for preventing, relieving or treating climacteric disorders comprising lactic acid bacteria and prebiotics” (CELL BIOTECH CO., LTD., priority 2019, dated 2023).

In test [1] the target is ERβ (Homo sapiens, UniProt Q92731). The conditions noted are these: background statement; cited from earlier work.
Test [2] has as its system estrogen receptor (ER). The conditions noted are these: background statement; cited from earlier work.
Test [3] in a line: Equol productivity of probiotic strains cultured in soybean germ extract (S30). The conditions noted are these: inoculated into 30% isoflavone-containing soybean germ extract (S30), 37° C., 48 hours. The protocol:
A probiotic strain having the ability to produce equol from a soybean germ extract (S30) containing 30 wt % of isoflavone was selected.
First, a soybean germ extract was prepared using 40 g/L of a soybean germ extract (S30, prepared by Seorim Bio) containing 30 wt % of isoflavone and sterile water. The pH of the soybean germ extract was adjusted to 6.7 using 5M NaOH. The entire soybean germ extract was sterilized by autoclaving at 121° C. for 15 minutes. Microorganisms were activated in rehydrated MRS (Mann Rogosa Sharpe) broth (De Mann et al. 1960) at 37° C. for 20 hours three times, followed by fourth activation in the sterile soybean germ extract at an inoculum level of 5% (v/v). 40 to 400 mL of the sterile soybean germ extract was inoculated with the active culture (5% v/v), and incubated at 37° C. for 24 hours to hydrolyze isoflavone glycosides. The strain activated in the soybean germ extract was used.
In addition, samples were taken at regular time intervals in a time-dependent manner and measured for β-glucosidase activity. […] The sequence of the above screening steps was determined flexibly. That is, strains producing equol were first screened, and then β-glucosidase activity was measured, or strains having high β-glucosidase activity were first screened, and then whether the strains produced equol was examined. […]

ERβ, sequence (Q92731 whole entry): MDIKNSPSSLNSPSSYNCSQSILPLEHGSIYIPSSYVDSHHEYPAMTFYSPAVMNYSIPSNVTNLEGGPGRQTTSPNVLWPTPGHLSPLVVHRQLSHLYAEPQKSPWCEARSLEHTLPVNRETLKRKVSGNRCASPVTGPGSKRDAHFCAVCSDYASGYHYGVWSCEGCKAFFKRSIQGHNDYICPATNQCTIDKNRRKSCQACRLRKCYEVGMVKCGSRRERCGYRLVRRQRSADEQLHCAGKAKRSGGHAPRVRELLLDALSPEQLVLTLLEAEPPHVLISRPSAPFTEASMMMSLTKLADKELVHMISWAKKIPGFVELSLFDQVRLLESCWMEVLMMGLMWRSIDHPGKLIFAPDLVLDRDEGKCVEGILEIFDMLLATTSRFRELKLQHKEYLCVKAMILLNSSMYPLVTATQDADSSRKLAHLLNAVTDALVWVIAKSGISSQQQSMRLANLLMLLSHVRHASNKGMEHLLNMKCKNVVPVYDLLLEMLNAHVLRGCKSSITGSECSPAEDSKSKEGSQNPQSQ

In the case of `Oc1ccc([C@H]2COc3cc(O)ccc3C2)cc1` [Equol], the “affinity for ERβ” value in test [1] is recorded as “high affinity for ERβ”. Further, the ER binding affinity entry in test [2] is recorded as “higher ER binding affinity than daidzein”.
With `O=c1c(-c2ccc(O)cc2)coc2cc(O)ccc12` [daidzein], the ER binding affinity entry in test [2] is given as “exhibits estrogen receptor (ER) binding affinity”.
Regarding Bifidobacterium longum, the “equol production / equol productivity in culture supernatant” value in test [3] was “equol was produced”.
